In the METLIN SMRT retention time set (Domingo-Almenara et al. 2019):

assay: gradient 5% acetonitrile 3 min, to 50% in 2 min, to 85% in 15 min, held 3 min, 100 µL/min; conditions: column: Zorbax Extend-C18 2.1 x 50 mm; eluents: water / acetonitrile, 0.1% formic acid
In short: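 Mixtures of ~100 pure standards were chromatographed on a Zorbax Extend-C18 column (2.1 × 50 mm, 1.8 μm) at 100 μL/min using water and acetonitrile, each with 0.1% formic acid. Detection used a quadrupole time-of-flight mass spectrometer in positive and negative ionization mode, and data collection spanned 3 months. Retention time was obtained from adduct peaks picked computationally and each checked manually.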

| RP-LC retention time [s] | SMILES |
| --- | --- |
| 715 | COc1ccc(OC)c(NC(=O)Cn2nc3n(c2=O)CCCCC3)c1 |
| 970 | Cc1ccc(-c2nnc(-c3nn(C)c4c3CN(S(=O)(=O)c3ccccc3F)CC4)o2)cc1 |
| 1070 | COc1ccc(-c2cc3c(=O)n(Cc4nc(-c5ccc(OC)cc5)oc4C)ccn3n2)cc1 |
| 878 | CCCCS(=O)(=O)N1CCc2c(c(-c3nnc(SCC)n3CC)nn2C)C1 |
| 705 | CN(C)c1ccc(C(=O)NC2CCN(c3cc(-c4ccccc4)[nH]n3)C2)cc1 (stereo not drawn) |
| 707 | N#Cc1ccc(O[C@@H]2c3ccccc3C[C@H]2N2CCC[C@@H](N)C2)c(Cl)c1 |
| 793 | CC(C)CC(=O)N1CCc2cc(CNS(=O)(=O)c3ccc4c(c3)CC(=O)N4C)ccc21 |
| 954 | Cc1ccc(-n2c(N3CCCC(C(=O)NCc4ccccc4C)C3)nc3ccsc3c2=O)cc1 (stereo not drawn) |
| 662 | Cc1cc(S(=O)(=O)[C@H]2CS(=O)(=O)C[C@@H]2N2CCN(c3ccc(F)cc3)CC2)ccc1F |
| 615 | COCCCN1CN=C(Nc2nc(C)c3cccc(OC)c3n2)NC1 |
| 659 | O=C(NC1CCN(Cc2ccccc2)CC1)C1CCCN(c2nnc(-n3cccc3)s2)C1 (stereo not drawn) |
| 771 | COc1cc2c(cc1CNC(=O)Cn1cc(C(C)=O)c3ccccc31)OCCCO2 |
| 1230 | CCc1ccc(-c2cc(C(F)(F)F)on2)cc1S(=O)(=O)N1CCN(c2ncccn2)CC1 |
| 929 | CCN1C(=O)c2ccccc2Oc2ccc(C(=O)NC(C)Cc3ccco3)cc21 (stereo not drawn) |
| 1180 | CCc1nc(-c2csc(S(=O)(=O)N3CCCC(C(=O)Nc4ccc(C)c(Cl)c4)C3)c2)no1 (stereo not drawn) |
| 706 | Cc1cnc(C(=O)NCC2Cn3cccc3C(=O)N2CC(C)C)cn1 (stereo not drawn) |
| 982 | Cc1cc(-c2nnc(C3CCC3)o2)c(C)n1CC(=O)Nc1ccc(Br)cc1F |
| 1110 | Cc1ccc(C)c(-n2c(-c3ccc(Cl)cc3)cn3c4c(=O)n(C)c(=O)n(C)c4nc23)c1 |
| 1170 | O=S(=O)(NC1CCCC1)c1cccc(-c2nc(-c3ccccc3)no2)c1 |
| 992 | Cc1ccc2c(c1)N(Cc1nc(C3CC3)no1)N=C(C(=O)N1CCC(C)CC1)S2(=O)=O |
| 844 | CCNC(=O)c1sc2nc(-c3cccc(F)c3)c(NCCCOC)n2c1C |

| RP-LC retention time [s] | SMILES |
| --- | --- |
| 1090 | Cc1csc(-c2cc(S(=O)(=O)Nc3cccc(C)c3C)c(C)s2)n1 |
| 729 | COC(=O)c1ncn2c1C(=O)N(Cc1cccc(F)c1)C(C)(C(=O)NCc1ccccc1)C2 (stereo not drawn) |
| 821 | Cc1ccccc1CCNC(=O)c1cc2n(n1)CC(C)(C(=O)NCc1ccc(F)cc1)N(C)C2=O (stereo not drawn) |
| 566 | COc1ccc(CN2CCC(NC(=O)c3ccc(C#N)cc3)C2)cn1 (stereo not drawn) |
| 1170 | CC(C)n1c(=O)oc2cc(-c3noc(COc4ccc(Cl)cc4)n3)ccc21 |
| 844 | O=C(Cc1ccc(Cl)cc1)NCCOc1ccccc1 |
| 560 | CC(C)COc1ccc(S(=O)(=O)N2CCOC(c3ccccc3)C2)cc1 (stereo not drawn) |
| 822 | CCc1ccc(NS(=O)(=O)c2cc(-c3[nH]ncc3C(=O)N3CCCCC3)oc2C)cc1 |
| 656 | O=C1CCCCC(Cc2ccccc2)(C(=O)NC2CCS(=O)(=O)C2)N1 (stereo not drawn) |
| 1300 | CCOc1ccc(-c2cc3c(SCC)nccn3n2)cc1 |
| 866 | CCn1cc(C)c(C(=O)O)c1CC(=O)Nc1cc(C)ccc1C |
| 814 | CC1=C(c2ccc(F)cc2)S(=O)(=O)N=C1N1CCCN(C(=O)CC(C)C)CC1 |
| 701 | CC(C(=O)N1CC(n2cc(COCC3CC3)nn2)C1)c1ccccc1 (stereo not drawn) |
| 676 | Cc1ccc(-c2nnc(-c3nc(N4CCN(c5ccccn5)CC4)c4ccccc4n3)o2)cc1 |
| 666 | CCOc1cc(S(=O)(=O)NCc2ccccn2)ccc1Br |
| 605 | O=C(CN1CCN(Cc2ccccc2F)C1=O)NCc1ccc(N2CCCCC2)cc1 |
| 990 | CN(C)c1cccc(F)c1C(=O)NC(=O)Nc1ccc(Cl)cc1 |
| 572 | Cc1cn(C)c(CC(=O)NCCN2CCOCC2)c1C(=O)O |
| 730 | O=C(c1cncc(Br)c1)N1CCC(OCC2CC2)C1 (stereo not drawn) |
| 705 | CCOc1ccc(NC(=O)Cn2nc3cc(C)nc(-c4ccccc4)n3c2=O)cc1 |
| 637 | COc1ccc2c(c1)CC(NC(=O)N1CCN(Cc3ccccc3)CC1)CO2 (stereo not drawn) |

| RP-LC retention time [s] | SMILES |
| --- | --- |
| 678 | COCCNC(=O)CS(=O)Cc1cnn(-c2ccccc2)c1-n1cccc1 (stereo not drawn) |
| 862 | CC1(C(=O)NCc2ccccc2)CCN(S(=O)(=O)c2cccc(C#N)c2)CC1 |
| 812 | COc1ccccc1-c1nc(-c2ccnc(N3CCOCC3)c2)no1 |
| 1170 | Cc1ccc(-n2nc(C)c3sc(N4CCCC(C(=O)NC(C)(C)C)C4)nc32)cc1 (stereo not drawn) |
| 978 | CC1CCN(C(=O)C2=CN(c3ccc(N(C)C)cc3)c3ccccc3S2(=O)=O)CC1 |
| 822 | O=C(CC1CSc2ccccc2NC1=O)NC1CCCCCC1 (stereo not drawn) |
| 819 | COc1cc(CSc2nc(CC(=O)Nc3nccs3)cs2)cc(OC)c1 |
| 862 | O=C(NC1CCN(c2cc(-c3ccc(Cl)cc3)[nH]n2)C1)c1cccc(OC(F)(F)F)c1 (stereo not drawn) |
| 796 | Cc1ccc(C2Cn3cnc(C(=O)N4CCC(C(=O)NCc5ccccc5)CC4)c3CO2)cc1 (stereo not drawn) |
| 654 | CC(=O)c1cccc(NC(=O)c2cc(C)nc3ccccc23)c1 |
| 992 | Cc1ccc(-c2ncc(C(=O)NCC3CCCCC3)c(-c3ccncc3)n2)cc1 |
| 1150 | CCCN(CCC)C(=O)c1cc2c(s1)N(C)CCCC2 |
| 649 | Cc1ccc(CNC(=O)C2CCN(c3cncnc3N3CCOCC3)CC2)cc1C |
| 988 | CCn1ccc2cc(S(=O)(=O)N3CCCC(C(=O)NCc4cc(OC)ccc4OC)C3)ccc21 (stereo not drawn) |
| 829 | COC(=O)c1cnn(C(=O)c2ccc(OC)cc2)c1N |
| 656 | O=C(OCc1cc(-c2ccccc2)on1)c1ccc[nH]c1=O |
| 596 | CCCN1CCN(C(=O)c2sc3ncn(CC(=O)N4CCCCC4C)c(=O)c3c2C)CC1 (stereo not drawn) |
| 893 | CC(C)(C)C(=O)N1CCC(C(=O)Nc2nnc(CCCc3ccccc3)s2)CC1 |
| 787 | Cc1ccc(Nc2c(-c3ccccc3)nc3ccc(Cl)cn23)cc1 |
| 796 | Cc1ccc(NC(=O)C2CCN(C(=O)c3ncn4c3COC(c3ccccc3)C4)CC2)cc1C (stereo not drawn) |
| 878 | Cc1cccc(NC(=O)/C=C/c2ccc([N+](=O)[O-])cc2)c1 |

| RP-LC retention time [s] | SMILES |
| --- | --- |
| 894 | COc1cccc(-c2noc(Cc3nnc(-c4ccccc4)o3)n2)c1OC |
| 577 | Cc1ccc2[nH]c(=O)c(CCC(=O)NCCN3CCOCC3)cc2c1 |
| 806 | CCSc1nnc(NC(=O)CSc2nnc(COc3ccccc3)o2)s1 |
| 845 | C[C@@H](Nc1cc(NS(=O)(=O)N2CCC2)nc(SCc2cccc(F)c2F)n1)[C@@H](O)CO |
| 971 | CCn1nnc2ccc(-c3noc(-c4ccc(C#N)cc4)n3)cc21 |
| 735 | CC(=O)N1CCOc2ccc(S(=O)(=O)N3CCCC3C(=O)Nc3nccs3)cc21 (stereo not drawn) |
| 830 | Fc1ccc(CNc2cc(-n3cccn3)ncn2)cc1 |
| 809 | O=C(NCCc1ccccc1)C1CC(=O)N(CCc2c[nH]c3ccc(Cl)cc23)C1 (stereo not drawn) |
| 1180 | COc1ccc(-c2nnc(-c3ccc(Cl)c(S(=O)(=O)N4CCC(C)CC4)c3)o2)cc1OC |
| 608 | COCC(=O)NCc1nnnn1C1CCCCC1 |
| 924 | O=C1NCCCCCCN(C(=O)C2CCCCC2)[C@H]2C[C@H](C(=O)N3CCc4ccccc4C3)C[C@@H]12 |
| 618 | CCCNC(=O)CC1=C2CCCCC2NC1=O (stereo not drawn) |
| 1060 | Cc1nc(C)c(C(=O)Nc2nc(-c3ccc(Cl)cc3)c(C)s2)s1 |
| 856 | COc1ccc(Nc2c(-c3ccccc3)nc3cnc(Br)cn23)cc1OC |
| 1060 | CCOC(=O)c1noc2nc(C)nc(Nc3cc(C)cc(C)c3)c12 |
| 876 | CCCn1cc(S(=O)(=O)Nc2ccc(OC)c(OC)c2)c2cccnc21 |
| 1050 | CCCc1ccc(S(=O)(=O)N2CCC(C(=O)NCc3csc(-c4cccs4)n3)CC2)cc1 |
| 1010 | O=C(Nc1ccc(F)c(Cl)c1)N1CCc2nc(-c3ccccc3)ncc2C1 |
| 782 | Cc1cc(Cl)ccc1S(=O)(=O)Nc1ccc(Cn2cncn2)cc1 |
| 1090 | CC(C)Cn1c(=O)c2cc(C(=O)NC(C)c3ccccc3)nn2c2ccccc21 (stereo not drawn) |

| SMILES | RP-LC retention time [s] |
| --- | --- |
| CO[C@@H]1C=C2CCN(C)[C@@H]2C2c3cc4c(cc3C(=O)O[C@@H]21)OCO4 (stereo partly drawn) | 604 |
| CCCNC(=O)N(C1CCOCC1)C1CCN(C(=O)Cc2ccsc2)CC1 | 703 |
| CN1C2CCC1CC(OC(c1ccc(F)cc1)c1ccc(F)cc1)C2 (stereo not drawn) | 838 |
| COc1ccc(S(=O)(=O)CCc2noc(C(=O)N3CCC4(CC3)OCCO4)n2)cc1 | 763 |
| C[C@]12CC[C@H]3[C@@H](C[C@H](F)C4=CC(=O)CC[C@@]43C)[C@@H]1CC[C@@H]2O | 798 |
